Target: T1, Enterobacter soli LF7 MarR_Es (Enterobacter soli, UniProt A0AAW8H3I9, A146S)
T1 sequence (A0AAW8H3I9 1-157 A146S): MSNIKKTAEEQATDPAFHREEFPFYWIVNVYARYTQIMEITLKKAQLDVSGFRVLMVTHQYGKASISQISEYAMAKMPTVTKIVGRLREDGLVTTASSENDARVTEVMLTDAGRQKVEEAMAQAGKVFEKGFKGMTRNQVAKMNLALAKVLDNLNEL
Test: ITC IAA binding to MarR_Es
Settings: 25 °C, IacR, read-out: KD1
Procedure: All ITC measurements were performed at 25 °C using an Auto-ITC200 microcalorimeter (MicroCal/GE Healthcare). The buffer employed was 20 mM HEPES, pH 7.4, 50 mM NaCl and 0.5% dimethly sulfoxide (DMSO) for protein/ligand binding and 20 mM HEPES, pH 7.4 and 300 mM NaCl for DNA/protein binding experiments. For ligand binding experiments, the calorimetry cell (volume 200 ml) was loaded with MarR wild-type, mutant or homologue protein at a concentration of 50 μM. The syringe was loaded with a ligand concentration of 0.5 or 2 mM. […] A typical injection protocol included a single 0.2 μl first injection followed by 20 1.5 μl injections of the syringe sample into the calorimetry cell. The spacing between injections was kept at 180 s and the reference power at 8 μcal s^−1. The data were analysed using Origin for ITC version 7.0 software supplied by the manufacturer and fit well to a one-site binding model. Two independent ITC measurements were performed for each condition.

**Q.** With `O=C(O)Cc1c[nH]c2ccccc12` [IAA, indole-3-acetic acid] as the molecule, how does the Kd read?
**A.** 2910 ± 96 nM
